# Test results taken from US20240400555A1 (Initial Therapeutics, Inc., priority 2023, published 2024).
# What was measured:
# [1] = system: HCT-116 Firefly-luciferase reporter cells; assay: Cellular c-MYC Reporter Assay; format: cell-based; conditions: Homo sapiens; untitled table following Table 8a; HCT-116 Firefly-luciferase reporter cells, 24 h; read-out: pIC50 (converted)
# Experimental: HCT-116 Firefly-luciferase reporter cells (BPS Bioscience) were seeded in 96-well tissue-culture treated sterile plates (Greiner Bio-One) at 5e4 cells/mL in 100 μL complete growth media (McCoy's 5A+10% FBS, +1% Pen-Strep, +1% G418). Cells were incubated at 37° C. with 5% CO2 for 4-6 h then treated with 3× compound solution in 50 μL complete growth media for a final volume of 150 μL per well with 0.2% DMSO. After 24 h incubation at 37° C. with 5% CO2, plates were allowed to equilibrate to RT for 20 min then developed by addition of 100 μL ONE-Glo Luciferase detection reagent (Promega), incubated at RT for 10 min. Luminescence was recorded using a SpectraMax i3x plate reader (Molecular Devices) and analyzed using Prism GraphPad 9 software.
# MV-4-11 cells = assay: Cell Viability Assay in MV-4-11 Cells; format: cell-based; conditions: Homo sapiens, MV4-11, 72 h, MV-4-11 cells, 72 h, Cell-Titer Glo; read-out: IC50
# Outline: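 Luminescent ATP read-out (CellTiter-Glo) after 72 h compound treatment of MV-4-11 leukaemia cells (7,000 per well, IMDM plus 10% FBS). Values expressed relative to DMSO control and derived by four-parameter non-linear regression.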
SMILES,IC50 [1] [nM],IC50 (MV-4-11 cells) [nM]
"Cn1cc(-c2ccc3c(N(C(=O)c4ccc(-n5nnc6cccnc65)cc4F)[C@@H]4CCCNC4)nccc3c2)cn1 [Example 97, (R)-4-(3H-[1,2,3]triazolo[4,5-b]pyridin-3-yl)-2-fluoro-N-(6-(1-methyl-1H-pyrazol-4-yl)isoquinolin-1-yl)-N-(piperidin-3-yl)benzamide]",380,
"CCOC(=O)/C=C/c1ccc2c(N(C(=O)c3ccc(-n4nnc5cccnc54)cc3F)[C@@H]3CCCNC3)nccc2c1 [Example 98, ethyl (R,E)-3-(1-(4-(3H-[1,2,3]triazolo[4,5-b]pyridin-3-yl)-2-fluoro-N-(piperidin-3-yl)benzamido)isoquinolin-6-yl)acrylate]",759,
"CC(C)(C)[Si](C)(C)OC/C=C/c1cc2c(N(C(=O)c3ccc(-n4nnc5cccnc54)cc3F)[C@@H]3CCCNC3)nccc2s1 [Example 99, (R,E)-4-(3H-[1,2,3]triazolo[4,5-b]pyridin-3-yl)-N-(2-(3-((tert-butyldimethylsilyl)oxy)prop-1-en-1-yl)thieno[3,2-c]pyridin-4-yl)-2-fluoro-N-(piperidin-3-yl)benzamide]",2000,
"CCOC(=O)/C=C/c1cccc2ccnc(N(C(=O)c3ccc(-c4cn(C)nn4)cc3)[C@@H]3CCCNC3)c12 [Example 100, ethyl (R,E)-3-(1-(4-(1-methyl-1H-1,2,3-triazol-4-yl)-N-(piperidin-3-yl)benzamido)isoquinolin-8-yl)acrylate]",1170,
"Cn1cc(-c2ccc(C(=O)N(c3ncccc3-c3cc[nH]n3)[C@@H]3CCCNC3)cc2)nn1 [Example 101, (R)—N-(3-(1H-pyrazol-3-yl)pyridin-2-yl)-4-(1-methyl-1H-1,2,3-triazol-4-yl)-N-(piperidin-3-yl)benzamide]",> 10000,
"C=Cc1cccc2ccnc(N(C(=O)c3ccc(-n4nnc5cccnc54)cc3F)[C@@H]3CCCNC3)c12 [Example 102, (R)-4-(3H-[1,2,3]triazolo[4,5-b]pyridin-3-yl)-2-fluoro-N-(piperidin-3-yl)-N-(8-vinylisoquinolin-1-yl)benzamide]",46.8,
"O=C(c1ccc(-n2nnc3cccnc32)cc1F)N(c1nccc2ccc(C#CCO)cc12)[C@@H]1CCCNC1 [Example 103, (R)-4-(3H-[1,2,3]triazolo[4,5-b]pyridin-3-yl)-2-fluoro-N-(7-(3-hydroxyprop-1-yn-1-yl)isoquinolin-1-yl)-N-(piperidin-3-yl)benzamide]",776,
"O=C(c1ccc(-n2nnc3cccnc32)cc1F)N(c1ncccc1/C=C/CCO)[C@@H]1CCCNC1 [Example 104, 2-fluoro-N-[3-[(E)-4-hydroxybut-1-enyl]-2-pyridyl]-N-[(3R)-3-piperidyl]-4-(triazolo[4,5-b]pyridin-3-yl)benzamide]",8910,
"O=C(c1ccc(-n2nnc3cccnc32)cc1F)N(c1ncccc1C#CCCO)[C@@H]1CCCNC1 [Example 105, 2-fluoro-N-[3-(4-hydroxybut-1-ynyl)-2-pyridyl]-N-[(3R)-3-piperidyl]-4-(triazolo[4,5-b]pyridin-3-yl)benzamide]",6310,
"O=C(c1ccc(-n2nnc3cccnc32)cc1F)N(c1nccc2cc(-c3cn[nH]c3)ccc12)[C@@H]1CCCNC1 [Example 106, (R)—N-(6-(1H-pyrazol-4-yl)isoquinolin-1-yl)-4-(3H-[1,2,3]triazolo[4,5-b]pyridin-3-yl)-2-fluoro-N-(piperidin-3-yl)benzamide]",537,
"Cc1cccc2ccnc(N(C(=O)c3ccc(Nc4nccc(N5CCOCC5CN(C)C)n4)cc3F)[C@@H]3CCCNC3)c12 (stereo partly drawn) [Example 956, 4-(4-(3-((dimethylamino)methyl)morpholino)pyrimidin-2-ylamino)-2-fluoro-N-(8-methylisoquinolin-1-yl)-N—((R)-piperidin-3-yl)benzamide]",,360
"Cc1cccc2ccnc(N(C(=O)c3ccc(Nc4nccc(N(C)C5CCOCC5)n4)cc3F)[C@@H]3CCCNC3)c12 [Example 957, (R)-2-fluoro-4-(4-(methyl(tetrahydro-2H-pyran-4-yl)amino)pyrimidin-2-ylamino)-N-(8-methylisoquinolin-1-yl)-N-(piperidin-3-yl)benzamide]",,23
"Cc1cccc2ccnc(N(C(=O)c3ccc(Nc4nccc(N5CCOCC5c5cccnc5)n4)cc3F)[C@@H]3CCCNC3)c12 (stereo partly drawn) [Example 958, 2-fluoro-N-(8-methylisoquinolin-1-yl)-N—((R)-piperidin-3-yl)-4-((4-(3-(pyridin-3-yl)morpholino)pyrimidin-2-yl)amino)benzamide]",,47
"Cc1cccc2ccnc(N(C(=O)c3ccc(Nc4nccc(N5CCCC[C@H]5C)n4)cc3F)[C@@H]3CCCNC3)c12 [Example 959, 2-fluoro-N-(8-methylisoquinolin-1-yl)-4-({4-[(2R)-2-methylpiperidin-1-yl]pyrimidin-2-yl}amino)-N-[(3R)-piperidin-3-yl]benzamide]",,190
"Cc1cccc2ccnc(N(C(=O)c3ccc(Nc4nccc(N5CCCC[C@H]5CO)n4)cc3F)[C@@H]3CCCNC3)c12 [Example 960, 2-fluoro-4-((4-((S)-2-(hydroxymethyl)piperidin-1-yl)pyrimidin-2-yl)amino)-N-(8-methylisoquinolin-1-yl)-N—((R)-piperidin-3-yl)benzamide]",,110
"Cc1cccc2ccnc(N(C(=O)c3ccc(Nc4nccc(CN5CCCC5)n4)cc3F)[C@@H]3CCCNC3)c12 [Example 961, (R)-2-fluoro-N-(8-methylisoquinolin-1-yl)-N-(piperidin-3-yl)-4-((4-(pyrrolidin-1-ylmethyl)pyrimidin-2-yl)amino)benzamide]",,38
"Cc1cccc2ccnc(N(C(=O)c3ccc(Nc4nccc(N5CCC(c6ccncc6)CC5)n4)cc3F)[C@@H]3CCCNC3)c12 [Example 962, (R)-2-fluoro-N-(8-methylisoquinolin-1-yl)-N-(piperidin-3-yl)-4-((4-(4-(pyridin-4-yl)piperidin-1-yl)pyrimidin-2-yl)amino)benzamide]",,15
"Cc1cccc2ccnc(N(C(=O)c3ccc(Nc4nccc(N5CCC(C)(CO)CC5)n4)cc3F)[C@@H]3CCCNC3)c12 [Example 963, 2-fluoro-4-({4-[4-(hydroxymethyl)-4-methylpiperidin-1-yl]pyrimidin-2-yl}amino)-N-(8-methylisoquinolin-1-yl)-N-[(3R)-piperidin-3-yl]benzamide]",,12
"COCC1CCN(c2ccnc(Nc3ccc(C(=O)N(c4nccc5cccc(C)c45)[C@@H]4CCCNC4)c(F)c3)n2)CC1 [Example 964, (R)-2-fluoro-4-((4-(4-(methoxymethyl)piperidin-1-yl)pyrimidin-2-yl)amino)-N-(8-methylisoquinolin-1-yl)-N-(piperidin-3-yl)benzamide]",,64
"COC(=O)[C@H]1CCCN1c1ccnc(Nc2ccc(C(=O)N(c3nccc4cccc(C)c34)[C@@H]3CCCNC3)c(F)c2)n1 [Example 965, methyl (2-((3-fluoro-4-((8-methylisoquinolin-1-yl)((R)-piperidin-3-yl)carbamoyl)phenyl)amino)pyrimidin-4-yl)-D-prolinate]",,130
"Cc1cccc2ccnc(N(C(=O)c3ccc(Nc4nccc(N5CCC[C@@H]5CO)n4)cc3F)[C@@H]3CCCNC3)c12 [Example 966, 2-fluoro-4-({4-[(2R)-2-(hydroxymethyl)pyrrolidin-1-yl]pyrimidin-2-yl}amino)-N-(8-methylisoquinolin-1-yl)-N-[(3R)-piperidin-3-yl]benzamide]",,32
"Cc1cccc2ccnc(N(C(=O)c3ccc(Nc4nccc(N5CC[C@H](N(C)C)C5)n4)cc3F)[C@@H]3CCCNC3)c12 [Example 967, 4-({4-[(3S)-3-(dimethylamino)pyrrolidin-1-yl]pyrimidin-2-yl}amino)-2-fluoro-N-(8-methylisoquinolin-1-yl)-N-[(3R)-piperidin-3-yl]benzamide]",,48
"Cc1cccc2ccnc(N(C(=O)c3ccc(Nc4ncnc(N5CCCC5)n4)cc3F)[C@@H]3CCCNC3)c12 [Example 968, 2-fluoro-N-(8-methylisoquinolin-1-yl)-N-[(3R)-piperidin-3-yl]-4-{[4-(pyrrolidin-1-yl)-1,3,5-triazin-2-yl]amino}benzamide]",,40
"Cc1cccc2ccnc(N(C(=O)c3ccc(Nc4ncnc(N5CCCCC5)n4)cc3F)[C@@H]3CCCNC3)c12 [Example 969, 2-fluoro-N-(8-methylisoquinolin-1-yl)-4-{[4-(piperidin-1-yl)-1,3,5-triazin-2-yl]amino}-N-[(3R)-piperidin-3-yl]benzamide]",,45
"Cc1cccc2ccnc(N(C(=O)c3ccc(Nc4ncnc(N5CCOCC5)n4)cc3F)[C@@H]3CCCNC3)c12 [Example 970, 2-fluoro-N-(8-methylisoquinolin-1-yl)-4-{[4-(morpholin-4-yl)-1,3,5-triazin-2-yl]amino}-N-[(3R)-piperidin-3-yl]benzamide]",,34
"Cc1cccc2ccnc(N(C(=O)c3ccc(Nc4ncnc(-c5ccccc5)n4)cc3F)[C@@H]3CCCNC3)c12 [Example 971, (R)-2-fluoro-N-(8-methylisoquinolin-1-yl)-4-(4-phenyl-1,3,5-triazin-2-ylamino)-N-(piperidin-3-yl)benzamide]",,107
"Cc1cccc2ccnc(N(C(=O)c3ccc(Nc4nccc(CN5CCC(F)(F)CC5)n4)cc3)[C@@H]3CCCNC3)c12 [Example 972, (R)-4-((4-((4,4-difluoropiperidin-1-yl)methyl)pyrimidin-2-yl)amino)-N-(8-methylisoquinolin-1-yl)-N-(piperidin-3-yl)benzamide]",,213
